Assay results from ChEMBL document CHEMBL1201862, “PubChem BioAssay data set” (2004).
Where “and” joins values, the source holds several entries; their conditions need not be identical. Equal values may be shown once. Calls of active or inactive are those of the source.

Assays:
[1] = molecular target: T1, Rac GTPase-activating protein 1 (Homo sapiens, UniProt Q9H0H5); test: MgcRacGAP GTPase-activating activity inhibitors, confirmation, biochemical, ADP Hunter fluorescence, primary and confirmatory (AID 624330); format: functional
T1 sequence (Q9H0H5 whole entry): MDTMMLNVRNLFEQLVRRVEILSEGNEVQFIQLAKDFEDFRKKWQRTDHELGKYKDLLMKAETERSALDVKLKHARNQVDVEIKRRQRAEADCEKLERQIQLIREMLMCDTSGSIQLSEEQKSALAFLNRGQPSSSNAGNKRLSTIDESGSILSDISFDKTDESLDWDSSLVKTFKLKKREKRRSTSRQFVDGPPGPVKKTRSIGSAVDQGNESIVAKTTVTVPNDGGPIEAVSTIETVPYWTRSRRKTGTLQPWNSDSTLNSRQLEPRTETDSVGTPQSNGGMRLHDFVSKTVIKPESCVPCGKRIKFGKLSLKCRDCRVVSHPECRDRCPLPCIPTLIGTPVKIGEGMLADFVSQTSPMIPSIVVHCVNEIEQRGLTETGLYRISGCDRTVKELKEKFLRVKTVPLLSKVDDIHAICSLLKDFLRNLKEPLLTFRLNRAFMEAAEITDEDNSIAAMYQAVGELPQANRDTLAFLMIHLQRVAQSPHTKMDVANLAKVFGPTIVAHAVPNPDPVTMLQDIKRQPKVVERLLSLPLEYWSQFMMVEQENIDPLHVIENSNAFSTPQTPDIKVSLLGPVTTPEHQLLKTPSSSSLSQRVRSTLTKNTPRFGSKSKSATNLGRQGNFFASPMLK

INS1 = test: beta cell apoptosis inhibitors, cytokine rescue, dose response, luminescence, retest (AID 449756); format: functional, cell-based; settings: Rattus norvegicus;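 also: cell death triggered by IL-1 beta plus TNF-alpha plus IFN-gamma mixture; protective hits raise ATP signal compared with cytokine alone wells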
Cytochrome P450 2C9 = Cytochrome P450 2C9 (Homo sapiens, UniProt P11712)
Cytochrome P450 2D6 = Cytochrome P450 2D6 (Homo sapiens, UniProt P10635);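 also: CYP2D6 member of a cytochrome P450 panel assay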
Streptococcus = test: Group A Streptococcus viability loss, dose response, counter-screen for streptokinase expression inhibitor project, luminescence, BacTiterGlo (AID 1915); format: functional, organism-based;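 also: potency for reduction of bacterial viability or growth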
Streptokinase A = molecular target: T2, Streptokinase A (Streptococcus pyogenes serotype M1, UniProt P10520); test: S. pyogenes streptokinase expression inhibitors, potency, dose response, plasminogen activation absorbance, OD405 (AID 1914); format: functional, Streptococcus pyogenes M1 GAS;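 also: secreted streptokinase activity via plasminogen activation per viability signal from cell pellet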
T2 sequence (P10520 whole entry): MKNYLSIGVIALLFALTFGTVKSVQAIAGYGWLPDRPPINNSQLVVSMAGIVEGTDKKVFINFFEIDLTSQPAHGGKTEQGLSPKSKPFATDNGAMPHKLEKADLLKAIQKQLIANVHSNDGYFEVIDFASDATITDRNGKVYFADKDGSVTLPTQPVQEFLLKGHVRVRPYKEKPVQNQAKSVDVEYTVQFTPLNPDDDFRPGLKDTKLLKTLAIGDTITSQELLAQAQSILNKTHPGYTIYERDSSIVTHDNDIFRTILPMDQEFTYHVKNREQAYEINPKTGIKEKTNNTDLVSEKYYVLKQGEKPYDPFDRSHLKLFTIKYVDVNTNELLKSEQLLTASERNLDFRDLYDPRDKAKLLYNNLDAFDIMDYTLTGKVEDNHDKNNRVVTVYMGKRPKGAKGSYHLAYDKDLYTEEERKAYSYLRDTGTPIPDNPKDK

[2] = tested on: Streptococcus sp. 'group A'; test: growth inhibition of control SK(-) GAS strain, dose response, counter-screen for streptokinase expression inhibitor project, luminescence, kanamycin, BacTiterGlo, confirmation (AID 1900); format: functional, organism-based
Cytochrome P450 2C19 = Cytochrome P450 2C19 (Homo sapiens, UniProt P33261); test: Cytochrome panel assay with activity outcomes. Panel member name: p450-cyp2c19 Compounds with AC50 equal or less than 10 uM are considered active; format: functional; settings: read-out: AC50
Cytochrome P450 3A4 = Cytochrome P450 3A4 (Homo sapiens, UniProt P08684);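 also: CYP3A4 tested as one member of a cytochrome P450 panel screen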
[3] = molecular target: T3, Corticotropin-releasing factor receptor 2/Corticotropin-releasing factor-binding protein (Homo sapiens, UniProt P24387+Q13324); test: activators of CRF receptor 2 with binding protein – uHTS hits, confirmation (AID 602473); format: functional; settings: read-out: EC50_Mean
T3 sequence (Q13324 whole entry): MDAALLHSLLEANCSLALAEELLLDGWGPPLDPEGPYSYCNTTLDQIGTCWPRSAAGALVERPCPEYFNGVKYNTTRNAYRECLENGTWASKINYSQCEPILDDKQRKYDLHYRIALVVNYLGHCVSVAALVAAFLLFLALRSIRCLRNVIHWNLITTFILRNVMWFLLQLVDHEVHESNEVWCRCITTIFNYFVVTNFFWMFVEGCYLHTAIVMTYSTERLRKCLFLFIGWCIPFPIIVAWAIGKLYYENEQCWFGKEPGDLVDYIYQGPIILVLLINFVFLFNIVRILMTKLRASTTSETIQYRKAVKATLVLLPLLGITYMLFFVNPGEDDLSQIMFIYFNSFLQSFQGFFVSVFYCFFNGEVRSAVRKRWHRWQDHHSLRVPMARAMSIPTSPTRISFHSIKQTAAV
T3 sequence (P24387 whole entry): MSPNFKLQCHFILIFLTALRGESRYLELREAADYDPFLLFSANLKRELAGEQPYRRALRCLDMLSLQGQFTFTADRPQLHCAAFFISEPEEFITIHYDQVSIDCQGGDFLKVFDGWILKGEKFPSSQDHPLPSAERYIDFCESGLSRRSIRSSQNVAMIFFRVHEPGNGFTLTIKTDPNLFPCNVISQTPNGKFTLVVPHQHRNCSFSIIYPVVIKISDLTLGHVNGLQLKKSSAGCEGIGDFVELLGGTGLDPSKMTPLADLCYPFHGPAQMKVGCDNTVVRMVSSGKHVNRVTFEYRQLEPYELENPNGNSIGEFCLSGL

Chain of Cytochrome P450 3A4 (P08684 whole entry): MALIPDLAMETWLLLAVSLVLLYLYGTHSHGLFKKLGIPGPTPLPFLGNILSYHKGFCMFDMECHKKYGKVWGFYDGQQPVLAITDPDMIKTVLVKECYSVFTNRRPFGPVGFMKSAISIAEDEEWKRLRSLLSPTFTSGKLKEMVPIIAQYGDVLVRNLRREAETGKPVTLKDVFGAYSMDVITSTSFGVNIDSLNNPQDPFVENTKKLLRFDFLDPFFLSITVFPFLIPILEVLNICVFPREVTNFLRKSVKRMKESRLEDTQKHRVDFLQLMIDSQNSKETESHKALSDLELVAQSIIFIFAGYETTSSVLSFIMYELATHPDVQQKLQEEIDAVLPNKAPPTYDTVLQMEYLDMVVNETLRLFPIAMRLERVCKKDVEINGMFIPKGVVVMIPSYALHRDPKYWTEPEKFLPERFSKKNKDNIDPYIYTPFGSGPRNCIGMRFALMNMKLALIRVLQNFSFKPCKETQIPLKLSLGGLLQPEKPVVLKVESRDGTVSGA
Chain of Cytochrome P450 2C9 (P11712 whole entry): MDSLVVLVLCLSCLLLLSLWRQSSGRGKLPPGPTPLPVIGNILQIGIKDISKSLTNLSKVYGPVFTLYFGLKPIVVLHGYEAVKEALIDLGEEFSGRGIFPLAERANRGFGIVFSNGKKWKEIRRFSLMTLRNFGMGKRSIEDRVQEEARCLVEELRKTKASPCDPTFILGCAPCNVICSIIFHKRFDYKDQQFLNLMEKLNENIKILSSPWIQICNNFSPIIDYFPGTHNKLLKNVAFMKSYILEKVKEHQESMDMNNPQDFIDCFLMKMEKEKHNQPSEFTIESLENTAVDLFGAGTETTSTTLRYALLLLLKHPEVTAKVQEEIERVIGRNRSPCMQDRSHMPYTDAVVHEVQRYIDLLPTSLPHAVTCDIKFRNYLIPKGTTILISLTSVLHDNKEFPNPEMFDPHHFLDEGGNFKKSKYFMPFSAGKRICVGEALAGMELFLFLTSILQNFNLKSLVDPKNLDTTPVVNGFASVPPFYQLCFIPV
Chain of Cytochrome P450 2C19 (P33261 whole entry): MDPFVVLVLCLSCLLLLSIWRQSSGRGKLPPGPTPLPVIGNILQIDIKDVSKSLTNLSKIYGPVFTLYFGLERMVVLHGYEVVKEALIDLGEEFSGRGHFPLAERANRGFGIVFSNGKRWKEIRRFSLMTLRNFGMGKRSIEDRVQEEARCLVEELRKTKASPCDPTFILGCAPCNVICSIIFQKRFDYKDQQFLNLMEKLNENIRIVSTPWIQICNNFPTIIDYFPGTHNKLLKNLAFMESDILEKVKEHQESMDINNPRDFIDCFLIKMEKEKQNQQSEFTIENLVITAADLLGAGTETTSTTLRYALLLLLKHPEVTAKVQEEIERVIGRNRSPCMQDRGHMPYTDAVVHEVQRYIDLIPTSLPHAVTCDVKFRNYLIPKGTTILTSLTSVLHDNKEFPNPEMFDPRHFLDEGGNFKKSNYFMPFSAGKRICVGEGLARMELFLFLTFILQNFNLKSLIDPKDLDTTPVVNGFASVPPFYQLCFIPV
Chain of Cytochrome P450 2D6 (P10635 whole entry): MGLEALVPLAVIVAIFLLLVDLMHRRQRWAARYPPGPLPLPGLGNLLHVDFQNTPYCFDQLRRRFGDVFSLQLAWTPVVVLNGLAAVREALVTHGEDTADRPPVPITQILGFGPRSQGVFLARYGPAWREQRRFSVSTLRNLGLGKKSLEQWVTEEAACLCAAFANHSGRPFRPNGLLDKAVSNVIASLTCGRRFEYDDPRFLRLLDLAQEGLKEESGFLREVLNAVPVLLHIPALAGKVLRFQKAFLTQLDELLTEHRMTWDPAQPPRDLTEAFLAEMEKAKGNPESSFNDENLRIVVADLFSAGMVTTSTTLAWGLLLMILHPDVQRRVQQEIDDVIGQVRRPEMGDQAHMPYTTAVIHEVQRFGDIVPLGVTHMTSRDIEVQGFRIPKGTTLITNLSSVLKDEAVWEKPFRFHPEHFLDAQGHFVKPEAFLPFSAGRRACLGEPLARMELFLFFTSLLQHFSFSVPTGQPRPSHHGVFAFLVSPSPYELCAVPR

O=C(O)C1CCCCC1C(=O)Nc1ccc(S(=O)(=O)N2CCOCC2)cc1 (stereo unspecified)
IC50 [1]: 150 µM (active)

COc1ccc(C2/C=C\CN(C(=O)C3CC3)[C@H](Cc3ccccc3)C(=O)N2Cc2ccc(F)cc2)cc1 (stereo partly specified)
AC50 (INS1): 13.5 µM (active)

CCCN1CCc2cc(O)cc3c2[C@H]1Cc1ccc(O)c(O)c1-3
AC50 (Cytochrome P450 2C9): 39.8 µM (inconclusive)
AC50 (Cytochrome P450 2D6): 15.8 µM (inconclusive)

O=C(CSc1nnc(NC(=O)c2cccc(F)c2)s1)NCC1CCCO1 (stereo unspecified)
EC50 (Streptococcus): > 150 µM (not active)
EC50 (Streptokinase A): > 150 µM (not active)
EC50 [2]: > 150 µM (not active)

COc1ccc(Br)cc1CN(C)CC(=O)NCCc1ccccc1
IC50 [1]: 95.5 µM (active)

CCN(CC)CCn1c(=S)[nH]c2cc3c(cc2c1=O)OCO3
AC50 (Cytochrome P450 2C19): 39.8 µM (inconclusive)
AC50 (Cytochrome P450 3A4): 14.1 µM (inconclusive)

CN=C(S)NNC(=O)c1sccc1OCc1ccc(C)cc1
AC50 (Cytochrome P450 3A4): 15.8 µM (inconclusive)

CCOC(=O)c1c(-c2ccc(C)o2)csc1NC(=O)COC(=O)c1ccc(NC(N)=O)cc1
EC50 (Streptococcus): 68 µM (active)
EC50 (Streptokinase A): 49.5 µM (active)
EC50 [2]: 1.75 µM (active)

Cc1ccc(OCC(O)CNC(=O)c2ccccc2C(=O)O)cc1 (stereo unspecified)
AC50 (Cytochrome P450 2C9): 0.00562 µM (inconclusive)

O=C1NC(=O)/C(=C\c2ccc(OCc3ccccc3)cc2)S1
EC50 (Streptococcus): > 150 µM (not active)
EC50 (Streptokinase A): > 50 µM (not active)
EC50 [2]: 52.8 µM (active)

Cc1cc(N)ccc1NC(=O)c1ccccc1
AC50 (Cytochrome P450 2C19): 20 µM (inconclusive)
AC50 (Cytochrome P450 2C9): 0.0224 µM (inconclusive)

O=C1NC(=S)NC1=Cc1ccc(O)cc1
IC50 [1]: 9.78 µM (active)

Cc1cc(C)c(S(=O)(=O)N2CCCCC2)c(C)c1N(C)S(=O)(=O)c1ccccc1
AC50 (Cytochrome P450 3A4): 1.12 µM (inconclusive)

Cc1ccc(NCc2ccco2)cc1C
IC50 [1]: 123 µM (active)

Cc1cccc(C)c1NC(=O)C(c1ccccc1)N1CCC1=O (stereo unspecified)
AC50 (Cytochrome P450 2C19): 20 µM (inconclusive)
AC50 (Cytochrome P450 3A4): 25.1 µM (inconclusive)

c1ccc(-n2c3ccccc3c3ccccc32)cc1
EC50 (Streptococcus): > 150 µM (not active)
EC50 (Streptokinase A): > 150 µM (not active)
EC50 [2]: 6.43 µM (active)

CCOC(=O)C1CCCN(c2ncnc3c2cnn3-c2ccc(Cl)cc2)C1 (stereo unspecified)
AC50 (Cytochrome P450 2C19): 22.4 µM (inconclusive)
EC50 [3]: > 53 µM (inactive)
AC50 (Cytochrome P450 3A4): 25.1 µM (inconclusive)

C/N=C\c1cc(-c2ccccc2)sc1O
IC50 [1]: 199 µM (active)

CCc1cc2c(COC(=O)c3cccc(NS(C)(=O)=O)c3)cc(=O)oc2cc1O
EC50 (Streptococcus): 100 µM (active)
EC50 (Streptokinase A): > 150 µM (not active)
EC50 [2]: 6.8 µM (active)

O=C(CCCc1nc(-c2ccc(Cl)cc2)no1)NC1CCCC1
AC50 (INS1): 10.2 µM (active)

Cc1cccc(CNc2ncnc3ccc(-c4ccc(C(=O)N(C)C)cc4)cc23)c1
AC50 (Cytochrome P450 2C19): 39.8 µM (inconclusive)
AC50 (Cytochrome P450 2C9): 0.794 µM (inconclusive)
AC50 (Cytochrome P450 2D6): 25.1 µM (inconclusive)

COc1cc(C[C@H](C)N)c(OC)cc1I
AC50 (Cytochrome P450 3A4): 1.58 µM (inconclusive) and 31.6 µM (inconclusive)

Cc1cc(-c2ccccc2)nc2c(Br)c(=O)[nH]n12
IC50 [1]: 210 µM (active)
